Test results published in ChEMBL document CHEMBL1201862, “PubChem BioAssay data set” (2004).
Calls of active or inactive are those of the source.

What was measured:
Aminopeptidase N = biological target: T1, Aminopeptidase N (Plasmodium falciparum FcB1/Columbia, UniProt O96935); test: malaria alanyl aminopeptidase activity blockers – biochemical, fluorogenic H-Leu-NHMec substrate, 1536-well (AID 1445); parameters: species or system Plasmodium falciparum 3D7, 3D7
T1 sequence (O96935 whole entry): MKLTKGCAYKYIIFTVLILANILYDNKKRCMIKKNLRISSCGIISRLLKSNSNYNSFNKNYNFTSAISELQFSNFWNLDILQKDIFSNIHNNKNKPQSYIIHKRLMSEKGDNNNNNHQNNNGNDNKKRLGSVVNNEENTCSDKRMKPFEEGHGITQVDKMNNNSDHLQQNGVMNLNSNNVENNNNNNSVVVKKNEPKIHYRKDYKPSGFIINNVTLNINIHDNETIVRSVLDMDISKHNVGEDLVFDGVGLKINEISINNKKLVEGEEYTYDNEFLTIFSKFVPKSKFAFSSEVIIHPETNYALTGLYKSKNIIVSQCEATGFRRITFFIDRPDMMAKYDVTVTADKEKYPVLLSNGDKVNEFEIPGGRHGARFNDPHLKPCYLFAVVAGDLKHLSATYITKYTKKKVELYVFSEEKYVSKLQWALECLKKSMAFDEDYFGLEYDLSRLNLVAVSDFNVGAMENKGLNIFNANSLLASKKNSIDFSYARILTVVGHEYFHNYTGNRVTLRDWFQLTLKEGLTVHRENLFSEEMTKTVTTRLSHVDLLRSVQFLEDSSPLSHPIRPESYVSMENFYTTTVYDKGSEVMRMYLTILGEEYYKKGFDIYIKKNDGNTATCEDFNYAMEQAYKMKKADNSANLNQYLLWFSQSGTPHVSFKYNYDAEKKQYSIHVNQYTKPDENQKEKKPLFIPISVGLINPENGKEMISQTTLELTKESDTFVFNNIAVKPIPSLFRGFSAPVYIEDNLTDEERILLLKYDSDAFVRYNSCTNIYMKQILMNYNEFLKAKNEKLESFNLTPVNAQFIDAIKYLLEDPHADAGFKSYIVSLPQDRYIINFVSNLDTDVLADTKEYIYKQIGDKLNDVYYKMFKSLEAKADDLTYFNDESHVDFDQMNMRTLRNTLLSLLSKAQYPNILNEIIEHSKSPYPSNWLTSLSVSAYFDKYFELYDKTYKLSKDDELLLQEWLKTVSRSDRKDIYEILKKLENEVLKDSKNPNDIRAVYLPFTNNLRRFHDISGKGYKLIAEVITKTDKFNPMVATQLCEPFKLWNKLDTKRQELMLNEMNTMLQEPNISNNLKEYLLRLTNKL

SUMO-activating enzyme [1] = biological target: T2, SUMO-activating enzyme (Homo sapiens, UniProt Q9UBT2); test: blockers of UBC9-mediated SUMO conjugation – biochemical, AlphaScreen, SUMOylation inhibitor project, confirmation (AID 2018); format: functional
Large T antigen = Large T antigen (Simian virus 40, UniProt P03070); format: functional, Betapolyomavirus macacae;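 further: Confirmatory-stage PubChem screen for compounds that inhibit SV40 T antigen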
[2] = CCR5-tropic HIV-1 fusion blockers – cell-based, CCR5-tropic Env, dose response (AID 2279); format: functional
SUMO-activating enzyme [3] = biological target: T2, SUMO-activating enzyme; test: blockers of SAE1/SAE2–UBC9 SUMO transfer – biochemical, HTRF, uHTS, primary screen (AID 2006); format: protein-complex assay
[4] = biological target: T3, Induced myeloid leukemia cell differentiation protein Mcl-1 (Homo sapiens, UniProt Q07820); test: blockers of MCL1 binding to BIM peptide – biochemical, fluorescence polarization, BIM-BH3 peptide, 1536-well, dose response (AID 2217)
Bcl-2-like protein 1 = Bcl-2-like protein 1 (Homo sapiens, UniProt Q07817); test: blockers of BCLXL peptide binding – biochemical, fluorescence polarization, 1536-well, selectivity assay for MCL1 inhibitor project, dose response (AID 2218)
[5] = biological target: T3, Induced myeloid leukemia cell differentiation protein Mcl-1; format: functional
Cysteine protease ATG4B = biological target: T4, Cysteine protease ATG4B (Homo sapiens, UniProt Q9Y4P1); format: functional;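 further: Fluorescence-based dose-response confirmation assay measuring inhibition of ATG4B activity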
T4 sequence (Q9Y4P1 whole entry): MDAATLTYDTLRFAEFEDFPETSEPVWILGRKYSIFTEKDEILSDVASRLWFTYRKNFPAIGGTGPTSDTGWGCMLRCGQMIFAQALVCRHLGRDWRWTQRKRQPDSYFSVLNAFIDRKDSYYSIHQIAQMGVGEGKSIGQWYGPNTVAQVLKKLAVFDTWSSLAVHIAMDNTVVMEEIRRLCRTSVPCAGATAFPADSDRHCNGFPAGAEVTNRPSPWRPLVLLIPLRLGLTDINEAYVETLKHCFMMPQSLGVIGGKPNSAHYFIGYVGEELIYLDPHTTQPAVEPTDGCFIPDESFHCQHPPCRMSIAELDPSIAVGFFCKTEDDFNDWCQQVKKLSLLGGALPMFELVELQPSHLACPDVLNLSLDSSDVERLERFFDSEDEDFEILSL

Phospholipase A2 = Phospholipase A2 (Homo sapiens, UniProt P04054); format: functional;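 further: confirmatory dose-response counterscreen on phospholipase A2, testing hits that came from an ultra-high-throughput screen for ATG4B inhibitors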
Vero = test: viability of Vero cells under compound – cytotoxicity control for flavivirus capping enzyme inhibitors (AID 588742); format: functional; details: Chlorocebus sabaeus
Genome polyprotein = Genome polyprotein (dengue virus type 2, UniProt P29990); test: flavivirus cap methylation enzyme inhibition – biochemical, confirmation dose response, primary screen (AID 588689); format: functional
[6] = biological target: 26S proteasome non-ATPase regulatory subunit 14 (Homo sapiens, UniProt O00487); test: inhibition of proteasome subunit RPN11 – biochemical, fluorescence polarization, uHTS hits, confirmation (AID 602368); format: functional
[7] = biological target: 72 kDa type IV collagenase (Homo sapiens, UniProt P08253); test: Dose Response validation of uHTS RPN11 inhibitor hits using a MMP-2 Fluorescence assay.; format: functional
Prothrombin = Prothrombin (Bos taurus, UniProt P00735); test: thrombin protease inhibitors – biochemical, fluorescence polarization, uHTS hits, dose response (AID 602369); format: functional
[8] = biological target: T5, Methionyl-tRNA synthetase, putative (Trypanosoma brucei brucei, UniProt Q38C91); format: functional, Trypanosoma brucei brucei strain 927/4 GUTat10.1
[9] = Counterscreen for inhibitors of Trypanosoma brucei methionyl tRNA synthetase (MetRS): Luminescence-based cell-based high throughput dose response assay to identify compounds that are cytotoxic to Jurkat human T lymphocyte cells.; format: functional
[10] = biological target: T5, Methionyl-tRNA synthetase, putative; format: functional, Trypanosoma brucei brucei strain 927/4 GUTat10.1; remark: listed apart in the source
[11] = IC50 of Artemis nuclease activity blockers – biochemical, fluorescence intensity, dose response (AID 720701); format: functional;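 further: Artemis endonuclease enzyme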
[12] = biological target: T6, RNA-binding protein pos-1 (Caenorhabditis elegans, UniProt G5EF15); test: disruptors of C. elegans POS-1 RNA interaction – biochemical, fluorescence polarization, dose response (AID 1964);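 further: purified POS-1 fused to maltose binding protein made in E. coli; potency of compounds blocking POS-1 binding to fluorescent RNA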
T6 sequence (G5EF15 whole entry): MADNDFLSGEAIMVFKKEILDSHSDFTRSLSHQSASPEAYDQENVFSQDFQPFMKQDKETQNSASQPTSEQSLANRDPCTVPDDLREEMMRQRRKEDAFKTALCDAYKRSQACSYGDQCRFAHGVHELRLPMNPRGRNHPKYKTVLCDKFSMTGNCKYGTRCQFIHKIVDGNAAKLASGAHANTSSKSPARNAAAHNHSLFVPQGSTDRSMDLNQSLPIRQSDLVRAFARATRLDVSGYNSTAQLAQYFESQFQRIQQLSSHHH

[13] = Counterscreen for IDE inhibitors: Luminescence-based cell-based high throughput dose response assay to identify compounds that are cytotoxic to HEK cells. [Related pubchem assays: 434962 (Primary screen (IDE inhibitors in singlicate)), 449730 (Counterscreen (Cytotoxicity in triplicate)), 435028 (Confirmation (IDE inhibitors in triplicate)) …; format: functional; details: HEK293
Insulin-degrading enzyme = biological target: T7, Insulin-degrading enzyme (Homo sapiens, UniProt P14735); test: Dose Response: Fluorescence polarization-based cell-based high throughput dose response assay for inhibitors of insulin-degrading enzyme (IDE). [Related pubchem assays: 434962 (Primary screen (IDE inhibitors in singlicate)), 449730 (Counterscreen (Cytotoxicity in triplicate)), 435028 (Confirmation (IDE inhibitors in triplicate)), 434984 (Summary …; format: functional
T7 sequence (P14735 whole entry): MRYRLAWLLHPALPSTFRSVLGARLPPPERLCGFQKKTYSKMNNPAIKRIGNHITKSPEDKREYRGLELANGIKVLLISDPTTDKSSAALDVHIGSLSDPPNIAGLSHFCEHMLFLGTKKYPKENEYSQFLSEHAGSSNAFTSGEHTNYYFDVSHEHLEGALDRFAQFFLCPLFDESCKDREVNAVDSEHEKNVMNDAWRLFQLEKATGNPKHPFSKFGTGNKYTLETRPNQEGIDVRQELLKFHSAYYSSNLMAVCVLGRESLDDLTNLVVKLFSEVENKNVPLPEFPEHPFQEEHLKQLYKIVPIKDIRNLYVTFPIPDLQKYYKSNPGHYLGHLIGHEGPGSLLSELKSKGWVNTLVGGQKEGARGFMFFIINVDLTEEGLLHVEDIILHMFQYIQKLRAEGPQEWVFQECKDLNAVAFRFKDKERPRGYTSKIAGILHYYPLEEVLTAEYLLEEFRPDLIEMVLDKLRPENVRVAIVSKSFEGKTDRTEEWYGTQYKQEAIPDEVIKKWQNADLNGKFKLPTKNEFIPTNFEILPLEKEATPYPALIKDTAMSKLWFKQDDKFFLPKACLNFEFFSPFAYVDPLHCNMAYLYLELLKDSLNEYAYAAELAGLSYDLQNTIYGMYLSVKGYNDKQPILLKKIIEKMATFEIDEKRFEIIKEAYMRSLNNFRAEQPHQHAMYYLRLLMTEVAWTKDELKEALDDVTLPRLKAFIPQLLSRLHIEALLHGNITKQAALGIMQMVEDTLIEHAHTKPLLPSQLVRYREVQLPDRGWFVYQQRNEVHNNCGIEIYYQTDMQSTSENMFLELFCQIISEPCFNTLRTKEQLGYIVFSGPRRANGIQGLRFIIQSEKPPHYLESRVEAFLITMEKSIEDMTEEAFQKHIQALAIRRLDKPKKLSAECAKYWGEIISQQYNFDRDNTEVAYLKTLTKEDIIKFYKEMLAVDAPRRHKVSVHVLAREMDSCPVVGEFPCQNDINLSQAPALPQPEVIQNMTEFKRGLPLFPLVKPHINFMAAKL

T3 sequence (Q07820 whole entry): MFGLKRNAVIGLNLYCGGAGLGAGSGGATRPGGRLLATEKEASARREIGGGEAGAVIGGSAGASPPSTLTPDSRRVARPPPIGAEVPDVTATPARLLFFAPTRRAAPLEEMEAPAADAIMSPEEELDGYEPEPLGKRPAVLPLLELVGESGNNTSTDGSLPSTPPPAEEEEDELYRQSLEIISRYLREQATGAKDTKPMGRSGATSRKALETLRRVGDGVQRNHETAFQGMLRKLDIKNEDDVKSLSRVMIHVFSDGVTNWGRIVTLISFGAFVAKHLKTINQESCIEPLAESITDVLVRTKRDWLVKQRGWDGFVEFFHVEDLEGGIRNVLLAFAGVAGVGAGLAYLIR
T2 sequence (Q9UBE0 whole entry): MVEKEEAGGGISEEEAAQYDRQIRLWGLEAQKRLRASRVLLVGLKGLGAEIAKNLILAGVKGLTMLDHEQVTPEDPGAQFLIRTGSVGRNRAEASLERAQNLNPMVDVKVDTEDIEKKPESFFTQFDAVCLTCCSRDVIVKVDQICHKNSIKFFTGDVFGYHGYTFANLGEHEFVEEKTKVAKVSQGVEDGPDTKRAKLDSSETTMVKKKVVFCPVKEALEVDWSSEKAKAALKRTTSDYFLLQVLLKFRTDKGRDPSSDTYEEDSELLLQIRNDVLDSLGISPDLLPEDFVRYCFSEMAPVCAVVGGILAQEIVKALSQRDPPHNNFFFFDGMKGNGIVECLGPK
T2 sequence (Q9UBT2 whole entry): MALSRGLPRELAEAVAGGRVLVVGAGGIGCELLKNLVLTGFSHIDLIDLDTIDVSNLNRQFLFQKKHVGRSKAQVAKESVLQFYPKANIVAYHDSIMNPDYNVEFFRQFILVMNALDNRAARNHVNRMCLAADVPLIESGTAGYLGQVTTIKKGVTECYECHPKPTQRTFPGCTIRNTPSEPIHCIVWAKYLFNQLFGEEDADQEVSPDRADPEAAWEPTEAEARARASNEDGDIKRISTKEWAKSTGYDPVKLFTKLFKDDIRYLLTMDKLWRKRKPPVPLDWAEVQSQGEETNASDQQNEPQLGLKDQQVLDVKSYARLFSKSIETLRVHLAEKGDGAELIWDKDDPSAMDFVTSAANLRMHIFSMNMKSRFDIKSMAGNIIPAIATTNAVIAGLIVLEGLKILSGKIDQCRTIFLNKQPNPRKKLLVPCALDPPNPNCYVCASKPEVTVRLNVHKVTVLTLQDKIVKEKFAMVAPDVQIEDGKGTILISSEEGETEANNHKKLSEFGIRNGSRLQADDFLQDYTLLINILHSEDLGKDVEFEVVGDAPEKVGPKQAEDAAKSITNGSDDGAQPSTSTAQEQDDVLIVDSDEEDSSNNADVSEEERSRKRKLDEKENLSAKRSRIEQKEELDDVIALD
T5 sequence (Q38C91 whole entry): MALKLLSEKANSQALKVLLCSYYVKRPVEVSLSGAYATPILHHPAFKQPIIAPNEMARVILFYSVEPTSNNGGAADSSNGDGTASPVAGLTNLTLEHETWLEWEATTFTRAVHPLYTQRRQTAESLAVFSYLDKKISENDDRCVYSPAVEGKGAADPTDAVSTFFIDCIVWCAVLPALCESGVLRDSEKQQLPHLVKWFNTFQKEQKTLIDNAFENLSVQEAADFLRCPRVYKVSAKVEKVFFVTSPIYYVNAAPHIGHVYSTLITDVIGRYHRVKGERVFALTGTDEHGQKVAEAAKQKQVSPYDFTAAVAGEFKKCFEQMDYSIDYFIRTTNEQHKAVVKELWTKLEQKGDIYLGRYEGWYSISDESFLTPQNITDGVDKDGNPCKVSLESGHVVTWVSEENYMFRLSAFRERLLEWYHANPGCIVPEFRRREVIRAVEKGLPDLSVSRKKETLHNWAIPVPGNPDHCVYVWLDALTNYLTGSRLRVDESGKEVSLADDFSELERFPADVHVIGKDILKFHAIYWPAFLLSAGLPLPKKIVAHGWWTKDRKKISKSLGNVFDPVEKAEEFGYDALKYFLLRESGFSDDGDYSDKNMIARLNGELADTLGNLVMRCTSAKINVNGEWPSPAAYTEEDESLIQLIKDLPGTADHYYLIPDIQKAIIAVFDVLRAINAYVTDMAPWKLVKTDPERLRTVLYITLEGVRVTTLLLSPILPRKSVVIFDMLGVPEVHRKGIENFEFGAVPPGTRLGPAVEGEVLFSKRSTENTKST
26S proteasome non-ATPase regulatory subunit 14, sequence (O00487 whole entry): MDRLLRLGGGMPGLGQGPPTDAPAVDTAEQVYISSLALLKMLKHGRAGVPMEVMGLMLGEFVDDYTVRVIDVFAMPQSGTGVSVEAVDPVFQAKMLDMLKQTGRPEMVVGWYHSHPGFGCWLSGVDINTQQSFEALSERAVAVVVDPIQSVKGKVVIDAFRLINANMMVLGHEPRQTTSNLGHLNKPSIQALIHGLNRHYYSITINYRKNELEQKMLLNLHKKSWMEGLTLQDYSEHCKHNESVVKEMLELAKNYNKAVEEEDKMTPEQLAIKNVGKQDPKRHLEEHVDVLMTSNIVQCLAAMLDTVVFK
Bcl-2-like protein 1, sequence (Q07817 whole entry): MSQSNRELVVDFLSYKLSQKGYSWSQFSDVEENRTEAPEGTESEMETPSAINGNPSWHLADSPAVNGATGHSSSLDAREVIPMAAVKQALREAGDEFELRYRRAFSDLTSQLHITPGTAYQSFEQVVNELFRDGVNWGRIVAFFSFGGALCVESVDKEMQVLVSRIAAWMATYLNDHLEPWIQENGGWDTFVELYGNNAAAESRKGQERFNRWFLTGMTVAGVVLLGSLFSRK
Phospholipase A2, sequence (P04054 whole entry): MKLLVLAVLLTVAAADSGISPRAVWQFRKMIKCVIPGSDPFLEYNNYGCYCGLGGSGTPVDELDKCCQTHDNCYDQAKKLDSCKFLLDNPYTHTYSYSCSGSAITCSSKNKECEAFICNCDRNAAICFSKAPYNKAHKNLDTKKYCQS
Large T antigen, sequence (P03070 whole entry, the tested form may be a part): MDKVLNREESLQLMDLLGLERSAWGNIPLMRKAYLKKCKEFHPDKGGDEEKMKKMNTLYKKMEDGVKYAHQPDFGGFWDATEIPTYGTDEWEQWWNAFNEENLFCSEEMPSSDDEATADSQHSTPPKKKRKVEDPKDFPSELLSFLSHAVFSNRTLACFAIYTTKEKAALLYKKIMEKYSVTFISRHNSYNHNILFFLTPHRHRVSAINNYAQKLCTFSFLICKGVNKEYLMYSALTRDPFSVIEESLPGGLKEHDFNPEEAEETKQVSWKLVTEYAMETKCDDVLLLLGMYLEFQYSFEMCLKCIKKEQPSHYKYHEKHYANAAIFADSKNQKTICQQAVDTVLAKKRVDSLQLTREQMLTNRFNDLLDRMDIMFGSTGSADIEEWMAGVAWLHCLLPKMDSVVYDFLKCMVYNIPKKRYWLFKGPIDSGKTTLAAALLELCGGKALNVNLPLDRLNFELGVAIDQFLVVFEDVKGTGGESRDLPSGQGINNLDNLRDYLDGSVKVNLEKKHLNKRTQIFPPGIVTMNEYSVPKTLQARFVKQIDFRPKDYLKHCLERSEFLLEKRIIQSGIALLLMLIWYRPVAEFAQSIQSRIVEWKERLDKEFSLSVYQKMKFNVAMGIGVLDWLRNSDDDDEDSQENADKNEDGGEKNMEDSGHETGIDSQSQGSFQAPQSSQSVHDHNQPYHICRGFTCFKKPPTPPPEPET
72 kDa type IV collagenase, sequence (P08253 whole entry): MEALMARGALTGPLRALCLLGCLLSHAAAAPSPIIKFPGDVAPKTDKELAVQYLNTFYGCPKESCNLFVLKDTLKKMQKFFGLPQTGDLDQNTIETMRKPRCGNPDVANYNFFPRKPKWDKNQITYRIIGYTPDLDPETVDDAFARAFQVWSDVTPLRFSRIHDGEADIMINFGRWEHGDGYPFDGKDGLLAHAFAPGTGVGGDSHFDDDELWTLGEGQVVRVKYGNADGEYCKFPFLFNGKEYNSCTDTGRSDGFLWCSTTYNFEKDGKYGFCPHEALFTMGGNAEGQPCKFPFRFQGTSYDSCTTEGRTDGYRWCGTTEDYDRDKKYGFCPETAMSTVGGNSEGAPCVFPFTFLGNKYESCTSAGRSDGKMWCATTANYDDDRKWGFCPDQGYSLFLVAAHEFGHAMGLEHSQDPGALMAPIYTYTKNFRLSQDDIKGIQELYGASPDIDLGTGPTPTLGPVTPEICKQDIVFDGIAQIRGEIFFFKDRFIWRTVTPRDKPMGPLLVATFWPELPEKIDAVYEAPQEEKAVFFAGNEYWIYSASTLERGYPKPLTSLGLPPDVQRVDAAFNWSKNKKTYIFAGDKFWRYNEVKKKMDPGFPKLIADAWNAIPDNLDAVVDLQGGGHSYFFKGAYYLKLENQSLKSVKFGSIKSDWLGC

O=C(N/N=C/c1ccc(-c2ccc(S(=O)(=O)Nc3ncccn3)cc2)o1)c1cc2ccccc2cc1O
IC50 (Aminopeptidase N): 42.3 µM (active) | IC50 (SUMO-activating enzyme [1]): 2.21 µM (active) | IC50 (Large T antigen): 52.8 µM (active) | IC50 [2]: 17 µM (active) | IC50 (SUMO-activating enzyme [3]): 12.4 µM (active) | IC50 [4]: > 4.03 µM (active) | IC50 (Bcl-2-like protein 1): > 109 µM (not active) | IC50 [5]: 1.63 µM (active) | IC50 (Cysteine protease ATG4B): 5.98 µM (active) | IC50 (Phospholipase A2): 20.3 µM (inactive) | CC50 (Vero): 26 µM (active) | IC50 (Genome polyprotein): 76.5 µM (active) | IC50 [6]: 33.3 µM (active) | IC50 [7]: > 100 µM (inactive) | IC50 (Prothrombin): 75.6 µM (active) | IC50 [8]: 15.8 µM (inactive) | IC50 [9]: 83.3 µM (inactive) | IC50 [10]: 18.6 µM (inactive) | IC50 [11]: 11.4 µM (active)

COc1ccc(/N=C(\C)c2sc3ccccc3c2O)cc1
EC50 [12]: > 300 µM (not active) | IC50 [13]: > 55.7 µM (not active) | IC50 (Insulin-degrading enzyme): > 18.7 µM (not active)
